Target: T1, human sEH enzyme (Homo sapiens, UniProt P34913)
T1 construct: His-tag (N, cleaved yes); made in house; host or cells: E. coli
T1 sequence (P34913 1-555): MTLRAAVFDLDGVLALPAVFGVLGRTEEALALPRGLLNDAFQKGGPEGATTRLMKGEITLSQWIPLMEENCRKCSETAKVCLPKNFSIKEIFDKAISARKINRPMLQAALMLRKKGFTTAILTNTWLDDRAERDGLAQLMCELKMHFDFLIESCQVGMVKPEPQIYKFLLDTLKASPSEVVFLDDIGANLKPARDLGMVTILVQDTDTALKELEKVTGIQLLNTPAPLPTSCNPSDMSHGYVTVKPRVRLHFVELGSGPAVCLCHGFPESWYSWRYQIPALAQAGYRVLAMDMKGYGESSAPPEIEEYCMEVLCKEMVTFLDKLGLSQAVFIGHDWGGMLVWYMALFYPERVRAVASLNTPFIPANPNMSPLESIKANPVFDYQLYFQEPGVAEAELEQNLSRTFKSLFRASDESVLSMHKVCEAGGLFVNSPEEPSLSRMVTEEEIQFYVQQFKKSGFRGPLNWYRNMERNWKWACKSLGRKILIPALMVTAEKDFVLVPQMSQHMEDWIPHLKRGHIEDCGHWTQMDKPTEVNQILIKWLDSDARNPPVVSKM
Test: sEH human enzyme assay (fluorescence based enzyme in vitro assay)
Format: biochemical
Conditions: recombinant human sEH about 1 nM, fluorescence substrate S7 10 uM, pH7.0, 25° C.; read-out: IC50 [nM] for human sEH enzyme inhibition
Description: Preparation of Recombinant sEH Human Enzyme
The DNA for expressing sEH was designed based on a […] sEH cDNA. Necessary Modifications were introduced to optimize for its expression both in E. coli and insect cells. The designed DNA fragment encodes a protein sequence that is identical to full length human sEH, and the DNA was synthesized in vitro. The DNA was then subcloned into the pET100 vector that will generate a fusion protein with an N-terminal His-tag. The recombinant protein was expressed in E. coli. The sEH enzyme was affinity purified by a Ni^++ column. His-tag was removed by Enter Kinase (EK) digestion. The purified enzyme aliquots were frozen and held at −80° C. for later use.
Fluorescence Based Enzyme In Vitro Assay
For each assay (100 ul), an aliquot of enzymes (about 1 nM final concentration) was incubated with a fluorescence substrate, S7 (10 uM final concentration), in sEH assay buffer (25 mM HEPES, pH7.0, 0.1 mg/ml BSA) in a 96-well plate. The kinetic reaction reading (Ex330/Em465) was conducted using a plate reader, Spectra max (Molecular Devices) at 25° C.

| IC50 [nM] | SMILES |
| --- | --- |
| 2 | CC1(c2ccccc2)CCCN(C(=O)NCC2CCc3ccccc3C2)C1 (stereo not drawn) [Example 35] |
| 6 | CC1(c2ccccc2)CCCN(C(=O)NCc2ccc(-c3ccccc3Cl)cc2)C1 (stereo not drawn) [Example 40] |
| 6 | CC1(c2ccccc2)CCCN(C(=O)NCc2ccc(-c3ccc4cn[nH]c4c3)cc2)C1 (stereo not drawn) [Example 43] |
| < 1 | O=C(Nc1ccc(Cl)cc1)N1CCCC(Cc2ccc(Cl)cc2)(c2ccccc2)C1 (stereo not drawn) [Example 5] |
| < 1 | CC1(c2ccccc2)CCCN(C(=O)NCCc2ccc(Cl)cc2)C1 (stereo not drawn) [Example 30] |
| 5 | CC1(c2ccccc2)CCCN(C(=O)NCCc2ccc3nccnc3c2)C1 (stereo not drawn) [Example 34] |
| 1 | CC1(c2ccccc2)CCCN(C(=O)NC2CC2c2ccccc2)C1 (stereo not drawn) [Example 27] |
| 6 | CC1(c2ccccc2)CCCN(C(=O)NCCCc2cccnc2)C1 (stereo not drawn) [Example 33] |
| 30 | CC1(c2ccccc2)CCCN(C(=O)NCc2nc3ccccc3s2)C1 (stereo not drawn) [Example 38] |
| 7 | CC1(c2ccccc2)CCCN(C(=O)NCc2ccc(-c3ccc4[nH]ccc4c3)cc2)C1 (stereo not drawn) [Example 42] |
| 59 | CC1(c2ccccc2)CCCN(C(=O)Nc2noc3ccccc23)C1 (stereo not drawn) [Example 13] |
| 306 | CC1(c2ccccc2)CCCN(C(=O)Nc2cccnc2)C1 (stereo not drawn) [Example 32] |
| 1.5 | CC1(c2ccccc2)CCCN(C(=O)NCc2ccc(-c3cccnc3)cc2)C1 (stereo not drawn) [Example 41] |
| 1 | CC1(c2ccccc2)CCCN(C(=O)NCCCCc2ccccc2)C1 (stereo not drawn) [Example 31] |
| 3 | CC1(c2ccccc2)CCCN(C(=O)NCc2ccc(-c3cccc4cnccc34)cc2)C1 (stereo not drawn) [Example 44] |
| 341 | CC1(c2ccccc2)CCCN(C(=O)Nc2nnc(-c3ccccc3)s2)C1 (stereo not drawn) [Example 12] |
| 7 | CC1(c2ccccc2)CCCN(C(=O)NC[C@H]2C[C@@H]2c2ccccc2)C1 (stereo in doubt) [Example 28] |

The next lines start with the compound.

| SMILES | IC50 [nM] |
| --- | --- |
| CC1(c2ccccc2)CCCN(C(=O)NC2C3CC4CC(C3)CC2C4)C1 (stereo not drawn) [Example 29] | 10 |
| CNC(=O)CCC1(c2ccccc2)CCCN(C(=O)Nc2ccc(Cl)cc2)C1 (stereo not drawn) [Example 50] | 5 |
| CC1(c2ccccc2)CCCN(C(=O)NC2CCc3ccccc3CC2)C1 (stereo not drawn) [Example 37] | 2 |
| CN(C)C(=O)C1(Cc2ccccc2)CCCN(C(=O)Nc2ccc(C(F)(F)F)cc2)C1 (stereo not drawn) [Example 25] | 3 |
| CCOC(=O)C1(Cc2c(Cl)cccc2Cl)CCCN(C(=O)Nc2ccc(C(F)(F)F)cc2)C1 (stereo not drawn) [Example 9] | < 1 |
| NC(=O)CCC1(c2ccccc2)CCCN(C(=O)Nc2ccc(Cl)cc2)C1 (stereo not drawn) [Example 45] | 5 |
| O=C(O)CCCC1(c2ccccc2)CCCN(C(=O)Nc2ccc(Cl)cc2)C1 (stereo not drawn) [Example 52] | 12 |
| CCOC(=O)C1(Cc2nc3ccccc3[nH]2)CCCN(C(=O)Nc2ccc(C(F)(F)F)cc2)C1 (stereo not drawn) [Example 22] | 3 |
| O=C(O)CCC1(c2ccccc2)CCCN(C(=O)Nc2ccc(Cl)cc2)C1 (stereo not drawn) [Example 3] | 5 |
| COC(=O)CCC1(c2ccc(F)cc2)CCCN(C(=O)NCCCc2ccccc2)C1 (stereo not drawn) [Example 7] | < 1 |
| O=C(O)CCC1(c2ccccc2)CCCN(C(=O)Nc2ccc(-n3nc(C(F)(F)F)cc3C(F)(F)F)cc2)C1 (stereo not drawn) [Example 11] | 3 |
| O=C(O)CCC1(c2ccc(-c3ccccc3)cc2)CCCN(C(=O)Nc2ccc(OC(F)(F)F)cc2)C1 (stereo not drawn) [Example 6] | 8 |
| O=C(NC1(Cc2ccccc2)CCCN(C(=O)Nc2ccc(C(F)(F)F)cc2)C1)OCc1ccccc1 (stereo not drawn) [Example 15] | 5 |
| N#CC1(Cc2ccccc2)CCCN(C(=O)Nc2ccc(C(F)(F)F)cc2)C1 (stereo not drawn) [Example 17] | 2 |
| O=C(Nc1ccc(Cl)cc1)N1CCCC(CCc2nnn[nH]2)(c2ccccc2)C1 (stereo not drawn) [Example 47] | 5 |
| N#CCCC1(c2ccccc2)CCCN(C(=O)Nc2ccc(Cl)cc2)C1 (stereo not drawn) [Example 46] | 3 |

| SMILES | IC50 [nM] |
| --- | --- |
| CC1(c2ccccc2)CCCN(C(=O)NC2CCc3ccccc3C2)C1 (stereo not drawn) [Example 36] | 1 |
| O=C(O)CCC1(c2ccc(F)cc2)CCCN(C(=O)NCCCc2ccccc2)C1 (stereo not drawn) [Example 8] | 6 |
| COC(=O)CCCC1(c2ccccc2)CCCN(C(=O)Nc2ccc(Cl)cc2)C1 (stereo not drawn) [Example 51] | < 1 |
| CCOC(=O)C1(Cc2cccc3ccccc23)CCCN(C(=O)Nc2ccc(C(F)(F)F)cc2)C1 (stereo not drawn) [Example 21] | 3 |
| O=C(Nc1ccc(Cl)cc1)N1CCCC(COCc2cc(C(F)(F)F)cc(C(F)(F)F)c2)(c2ccccc2)C1 (stereo not drawn) [Example 1] | 2 |
| O=C(Nc1ccc(C(F)(F)F)cc1)N1CCCC(Cc2ccccn2)(C(=O)OCc2ccccc2)C1 (stereo not drawn) [Example 23] | 2 |
| CNC(=O)C1(Cc2ccccc2)CCCN(C(=O)Nc2ccc(C(F)(F)F)cc2)C1 (stereo not drawn) [Example 16] | 6 |
| O=C(CCC1(c2ccccc2)CCCN(C(=O)Nc2ccc(Cl)cc2)C1)Nc1nnn[nH]1 (stereo not drawn) [Example 48] | 1 |
| COC(=O)CCC1(c2ccccc2)CCCN(C(=O)Nc2ccc(-n3nc(C(F)(F)F)cc3C(F)(F)F)cc2)C1 (stereo not drawn) [Example 10] | 3 |
| CCOC(=O)C1(Cc2nccn2Cc2ccccc2)CCCN(C(=O)Nc2ccc(C(F)(F)F)cc2)C1 (stereo not drawn) [Example 24] | 7 |
| O=C(Nc1ccc(C(F)(F)F)cc1)N1CCCC(CO)(Cc2ccccc2)C1 (stereo not drawn) [Example 14] | 2 |
| O=C(Nc1ccc(C(F)(F)F)cc1)N1CCCC(Cc2ccccc2)(C(=O)NCCc2c[nH]c3ccccc23)C1 (stereo not drawn) [Example 20] | < 1 |
| Cc1nc(C2(C)CCCN(C(=O)Nc3ccc(C(F)(F)F)cc3)C2)no1 (stereo not drawn) [Example 49] | 5 |
| O=C(NCc1ccc(Cl)c(Cl)c1)N1CCCC(CCc2noc(C(F)(F)F)n2)(c2ccccc2)C1 (stereo not drawn) [Example 18] | 5 |
| CC1N(C(=O)Nc2ccc(Cl)cc2)CCCC1(C)c1ccccc1 (stereo not drawn) [Example 4] | 5 |

Reference: patent US8455520B2, “Soluble epoxide hydrolase inhibitors, compositions containing such compounds and methods of treatment” (Merck Sharp & Dohme Corp., priority 2007, dated 2013)
